“And” between values parts separate entries of the source, which are not always exact repeats. Identical values can stand only once.
Legend:
[1] = test system: normal human cells (Wi-38); experiment: MTT cytotoxicity screening on normal human cells; assay type: cell-based; details: for EC100 (safe concentration at 100% cell viability): Wi-38 normal human lung fibroblasts, MTT, 72 h, mean ± SEM
[2] = test system: human colon cancer (Caco-2) cells; experiment: MTT anticancer screening on human colon cancer Caco-2 cells; assay type: cell-based; details: for Morphological changes of Caco-2 cells: 72 h treatment, phase contrast microscopy; for IC50: Caco-2, MTT, 72 h, mean ± SEM
[3] = test system: Caco-2 cells; experiment: Determination of cellular ROS in Caco-2; assay type: cell-based, human; details: Caco-2 cells treated with anticancer IC50 dose
[4] = test system: ALDH1A; experiment: Inhibition of ALDH1A activity in treated Caco-2 cells; assay type: cell-based, human; details: Caco-2 cells treated with anticancer IC50 dose, 72 h
[5] = test system: glutathione peroxidase (GPx); experiment: Inhibition of glutathione peroxidase activity in treated Caco-2 cells; assay type: cell-based, human; details: Caco-2 cells treated with anticancer IC50 dose, 72 h
[6] = molecular target: Cu/Zn SOD (Homo sapiens, UniProt P00441); experiment: Inhibition of intracellular SOD activity in treated Caco-2 cells; assay type: cell-based; details: Caco-2 cells treated with anticancer IC50 dose, 72 h
Chain of Cu/Zn SOD (P00441 whole entry): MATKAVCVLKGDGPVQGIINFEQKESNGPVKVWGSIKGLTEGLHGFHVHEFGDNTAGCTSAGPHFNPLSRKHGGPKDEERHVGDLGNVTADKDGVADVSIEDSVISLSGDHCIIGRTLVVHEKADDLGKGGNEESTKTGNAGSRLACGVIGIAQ

[7] = test system: SOD; details: read-out: SOD inhibition IC50; via copper chelation; cited from earlier work

SMILES | IC50 ([2]; Homo sapiens, Caco-2, 72 h) [µM] | EC100 (safe concentration at 100% cell viability) [1] | also measured
O=C1NC(=O)C(=Cc2ccc(O)cc2)S1 [Compound 3e, 5-(4-Hydroxybenzylidene)thiazolidine-2,4-dione] | 8.48 ± 0.599 | 6.727 ± 0.040 µM | 
O=C1CSC(=O)N1 [Compound 1, 2,4-thiazolidinedione] | 12.1 ± 3.25 | 22.05 µM and 22.047 ± 0.434 µM | 
O=C1N=C(O)SC1=Cc1ccccc1 [Compound 3a, 5-Benzylidenethiazolidine-2,4-dione] | 74.6 ± 8.31 | 19.679 ± 3.105 µM | 
C=CCN1C(=O)SC(=Cc2ccccc2)C1=O [Compound 4a, 3-Allyl-5-benzylidenethiazolidine-2,4-dione] | 12 ± 1.36 | 58.92 µM and 58.916 ± 10.698 µM | EC100 fold relative to doxorubicin (safety) ([1]; Wi-38, EC100 compound vs DOX): approximately 47.5 folds
C=CCN1C(=O)SC(=Cc2ccc(N(C)C)cc2)C1=O [Compound 4d, 3-Allyl-5-(4-(dimethylamino)benzylidene)thiazolidine-2,4-dione] | 7.062 ± 0.005 |  | 
C[N+](C)(C)CCO.C[N+](C)(C)CCO.[SH-].[SH-].[S]=[Mo]=[S] [ATN-224, bis-choline tetrathiomolybdate] |  |  | IC50 [7]: 0.33 µM
C=CCN1C(=O)SC(=Cc2ccc([N+](=O)[O-])cc2)C1=O [Compound 4c, 3-Allyl-5-(4-nitrobenzylidene)thiazolidine-2,4-dione] | 6.52 ± 0.077 | 7.078 ± 0.136 µM | 
C=CCN1C(=O)SC(=Cc2cccc(Cl)c2)C1=O [Compound 4b, 3-Allyl-5-(3-chlorobenzylidene)thiazolidine-2,4-dione] | 13.8 ± 0.789 | 9.902 ± 2.360 µM | 
O=C1NC(=O)C(=Cc2ccc([N+](=O)[O-])cc2)S1 [Compound 3c, 5-(4-Nitrobenzylidene)thiazolidine-2,4-dione] | 4.71 | 6.0653 ± 0.127 µM | Morphological changes of Caco-2 cells [2]: severe shrinkage and collapse; IC50 [2]: 4.72 ± 0.602 µM
C=CCOc1ccc(C=C2SC(=O)N(CC=C)C2=O)cc1 [Compound 4e, 3-Allyl-5-(4-(allyloxy)benzylidene)thiazolidine-2,4-dione] | 12.2 ± 3.12 |  | 
CN(C)c1ccc(C=C2SC(O)=NC2=O)cc1 [Compound 3d, 5-(4-(Dimethylamino)benzylidene)thiazolidine-2,4-dione] | 8.95 ± 0.631 | 25.35 µM and 25.345 ± 0.655 µM | 

The next lines start with results.

IC50 ([2]; Homo sapiens, Caco-2, 72 h) [µM] | SMILES | EC100 (safe concentration at 100% cell viability) [1] | also measured
4.41 | O=C1SC(=Cc2ccc(OCCCBr)cc2)C(=O)N1CCCBr [Compound 6e, 5-(4-(3-Bromopropoxy)benzylidene)-3-(3-bromopropyl)thiazolidine-2,4-dione] | 10.683 ± 2.384 µM | Morphological changes of Caco-2 cells [2]: severe shrinkage and collapse; IC50 [2]: 4.41 ± 0.546 µM
8.2 ± 0.135 | CCOC(=O)CN1C(=O)SC(=Cc2ccccc2)C1=O [Compound 5a, Ethyl-2-(5-benzylidene-2,4-dioxothiazolidin-3-yl)acetate] |  | 
10.4 ± 0.499 | O=C1SC(=Cc2ccc([N+](=O)[O-])cc2)C(=O)N1CCCBr [Compound 6c, 3-(3-Bromopropyl)-5-(4-nitrobenzylidene)thiazolidine-2,4-dione] | 13.424 ± 1.130 µM | 
6.67 ± 0.118 | CCOC(=O)CN1C(=O)SC(=Cc2ccc([N+](=O)[O-])cc2)C1=O [Compound 5c, Ethyl-2-(5-(4-nitrobenzylidene)-2,4-dioxothiazolidin-3-yl)acetate] | 8.573 ± 0.409 µM | 
19.9 | COc1cccc2c1C(=O)c1c(O)c3c(c(O)c1C2=O)C[C@@](O)(C(=O)CO)C[C@@H]3O[C@H]1C[C@H](N)[C@H](O)[C@H](C)O1 [DOX, doxorubicin] | 1.239 ± 0.285 µM | IC50 [2]: 19.9 ± 2.37 µM; Fold increment in cellular ROS level relative to untreated cells [3]: 4.065 folds; Inhibition of ALDH1A activity [4]: about 4.800%; Inhibition of GPx activity [5]: 40.31%; Inhibition of intracellular SOD activity [6]: 30.78%
4.73 | O=C1SC(=Cc2ccccc2)C(=O)N1CCCBr [Compound 6a, 5-Benzylidene-3-(3-bromopropyl)thiazolidine-2,4-dione] | 18.938 ± 0.975 µM | Morphological changes of Caco-2 cells [2]: severe shrinkage and collapse; IC50 [2]: 4.739 ± 0.021 µM
6.77 ± 0.096 | O=C1SC(=Cc2ccc([N+](=O)[O-])cc2)C(=O)N1CCCO [Compound 7c, 3-(3-Hydroxypropyl)-5-(4-nitrobenzylidene)thiazolidine-2,4-dione] | 11.439 ± 0.927 µM | 
7.94 ± 0.599 | CN(C)c1ccc(C=C2SC(=O)N(CCCBr)C2=O)cc1 [Compound 6d, 3-(3-Bromopropyl)-5-(4-(dimethylamino)benzylidene)thiazolidine-2,4-dione] | 14.776 ± 1.125 µM | 
10.2 ± 0.77 | O=C1SC(=Cc2ccccc2)C(=O)N1CCCO [Compound 7a, 5-Benzylidene-3-(3-hydroxypropyl)thiazolidine-2,4-dione] | 18.923 ± 1.959 µM | 
8.24 ± 2.59 | CCOC(=O)CN1C(=O)SC(=Cc2ccc(N(C)C)cc2)C1=O [Compound 5d, Ethyl-2-(5-(4-(dimethylamino)benzylidene)-2,4-dioxothiazolidin-3-yl)acetate] | 16.179 ± 6.066 µM | 
8.57 ± 0.942 | CCOC(=O)COc1ccc(C=C2SC(=O)N(CC(=O)OCC)C2=O)cc1 [Compound 5e, Ethyl-2-(5-(4-(2-ethoxy-2-oxoethoxy)benzylidene)-2,4-dioxothiazolidin-3-yl)acetate] | 8.417 ± 0.004 µM | 
7.118 ± 0.01 | CN(C)c1ccc(C=C2SC(=O)N(CCCO)C2=O)cc1 [Compound 7d, 5-(4-(Dimethylamino)benzylidene)-3-(3-hydroxypropyl)thiazolidine-2,4-dione] | 12.073 ± 3.577 µM | 
